Test results reported in ChEMBL document CHEMBL1201862, “PubChem BioAssay data set” (2004).
Activity calls are given as the source filed them.

Experiments:
[1] = biological target: Induced myeloid leukemia cell differentiation protein Mcl-1 (Homo sapiens, UniProt Q07820); format: functional
[2] = biological target: Eukaryotic translation initiation factor 4E (Mus musculus, UniProt P63073); experiment: blockers of eIF4G binding by eIF4E – biochemical, TR-FRET, dose response (AID 855); format: functional;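 note: potency for disrupting eIF4E binding to eIF4GI seen as loss of FRET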
Eukaryotic translation initiation factor 4E, sequence (P63073 whole entry): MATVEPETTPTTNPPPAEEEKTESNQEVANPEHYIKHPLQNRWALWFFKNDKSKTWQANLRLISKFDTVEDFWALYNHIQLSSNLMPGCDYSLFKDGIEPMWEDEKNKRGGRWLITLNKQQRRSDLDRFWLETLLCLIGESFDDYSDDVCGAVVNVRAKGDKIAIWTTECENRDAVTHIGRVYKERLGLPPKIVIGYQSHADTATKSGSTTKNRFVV

[3] = biological target: DNA dC->dU-editing enzyme APOBEC-3A (Homo sapiens, UniProt P31941); experiment: Dose Response confirmation of small molecule APOBEC3A DNA Deaminase Inhibitors via a fluorescence-based single-stranded DNA deaminase assay. [Related pubchem assays (depositor defined):AID493011, AID493024]; format: functional
DNA dC->dU-editing enzyme APOBEC-3A, sequence (P31941 whole entry): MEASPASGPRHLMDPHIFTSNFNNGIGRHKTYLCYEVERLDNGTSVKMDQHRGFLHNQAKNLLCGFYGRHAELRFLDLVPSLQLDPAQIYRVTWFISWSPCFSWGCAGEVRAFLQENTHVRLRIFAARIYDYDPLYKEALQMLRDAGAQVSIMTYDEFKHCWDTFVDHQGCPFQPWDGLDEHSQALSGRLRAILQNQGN

[4] = biological target: DNA dC->dU-editing enzyme APOBEC-3G (Homo sapiens, UniProt Q9HC16); format: functional;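 note: Dose-response counterscreen measuring inhibition of APOBEC3G DNA deaminase activity, run while confirming APOBEC3A inhibitors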
DNA dC->dU-editing enzyme APOBEC-3G, sequence (Q9HC16 whole entry): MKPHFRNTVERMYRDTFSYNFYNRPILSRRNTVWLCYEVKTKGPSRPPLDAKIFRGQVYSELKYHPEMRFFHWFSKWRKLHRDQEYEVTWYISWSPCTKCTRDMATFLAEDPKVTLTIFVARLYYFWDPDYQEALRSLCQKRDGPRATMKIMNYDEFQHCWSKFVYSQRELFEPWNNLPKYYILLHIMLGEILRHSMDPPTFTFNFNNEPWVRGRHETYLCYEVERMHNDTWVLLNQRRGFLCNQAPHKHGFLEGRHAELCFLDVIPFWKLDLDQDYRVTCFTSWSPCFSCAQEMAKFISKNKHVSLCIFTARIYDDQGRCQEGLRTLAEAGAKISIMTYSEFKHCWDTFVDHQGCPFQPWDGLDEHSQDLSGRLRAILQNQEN

Prothrombin = Prothrombin (Homo sapiens, UniProt P00734); experiment: Thrombin 1536 HTS Dose Response Confirmation. [Related pubchem assays: 1046 (Thrombin 1536 HTS; hits were confirmed in this assay)]; format: functional
[5] = viability inhibitors of stage V gametocytes – luminescence, dose response (AID 1117278); format: functional, cell-based;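 note: gametocytes exposed to compound for 24 hours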
[6] = viability loss in human Jurkat cells – cell-based, luminescence, cytotoxicity control for P. falciparum gametocyte viability project, dose response (AID 1117277); format: functional;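 note: potency reflects loss of cellular ATP meaning fewer viable cells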
[7] = biological target: T1, Mannose-6-phosphate isomerase (Homo sapiens, UniProt P34949); experiment: MPI inhibition at elevated mannose 6-phosphate – biochemical, fluorescence intensity, high mannose 6-phosphate, primary screen (AID 1220)
T1 sequence (P34949 whole entry): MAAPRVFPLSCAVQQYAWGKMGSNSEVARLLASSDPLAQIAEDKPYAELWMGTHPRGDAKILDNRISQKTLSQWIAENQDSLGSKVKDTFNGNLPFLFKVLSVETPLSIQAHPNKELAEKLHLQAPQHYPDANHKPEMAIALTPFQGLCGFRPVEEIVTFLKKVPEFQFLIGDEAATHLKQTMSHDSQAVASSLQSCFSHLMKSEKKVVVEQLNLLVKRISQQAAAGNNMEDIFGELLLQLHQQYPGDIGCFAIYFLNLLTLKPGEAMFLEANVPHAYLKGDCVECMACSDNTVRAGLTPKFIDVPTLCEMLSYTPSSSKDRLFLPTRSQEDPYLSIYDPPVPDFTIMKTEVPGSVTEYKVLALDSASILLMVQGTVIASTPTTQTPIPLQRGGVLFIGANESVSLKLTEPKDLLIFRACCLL

Estrogen receptor = biological target: T2, Estrogen receptor (Homo sapiens, UniProt P03372);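 note: potency for inhibiting coactivator peptide recruitment to the receptor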
T2 sequence (P03372 whole entry): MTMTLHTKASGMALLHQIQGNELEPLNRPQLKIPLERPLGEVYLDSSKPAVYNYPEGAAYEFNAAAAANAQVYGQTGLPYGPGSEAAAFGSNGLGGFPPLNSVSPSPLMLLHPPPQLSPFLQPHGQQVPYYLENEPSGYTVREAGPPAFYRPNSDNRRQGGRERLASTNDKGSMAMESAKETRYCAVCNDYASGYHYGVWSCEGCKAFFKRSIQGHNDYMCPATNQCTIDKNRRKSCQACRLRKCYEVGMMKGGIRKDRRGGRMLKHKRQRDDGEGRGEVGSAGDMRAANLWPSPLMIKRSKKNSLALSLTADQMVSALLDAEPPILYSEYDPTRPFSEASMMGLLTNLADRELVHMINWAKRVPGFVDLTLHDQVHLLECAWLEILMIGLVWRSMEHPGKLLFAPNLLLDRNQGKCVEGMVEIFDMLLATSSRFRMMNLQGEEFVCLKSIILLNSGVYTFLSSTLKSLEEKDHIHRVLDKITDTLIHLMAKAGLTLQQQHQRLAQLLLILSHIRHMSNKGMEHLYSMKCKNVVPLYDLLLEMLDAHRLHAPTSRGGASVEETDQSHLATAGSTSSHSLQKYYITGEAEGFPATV

[8] = viability of uninfected HEp-2 cells – cell-based, HTS, cytotoxicity control for RSV inhibitor project, dose response (AID 2410); format: functional; settings: human respiratory syncytial virus
[9] = blockers of HIV-1 envelope-mediated cell-cell fusion – cherry-pick, dose response (AID 652057); format: functional, cell-based
[10] = blockers of HIV-1 ZM109 envelope-driven cell-cell fusion – HeLa effector, CEM target cells, luciferase, cherry-pick, dose response (AID 652058); format: functional, cell-based;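 note: luciferase signal from HIV-1 Env mediated cell-cell fusion of effector and target cells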
[11] = off-target signal loss in HeLa-CEM21 co-culture – HeLa F-luc CTL cells, cherry-picked, counter-screen for HIV-1 Env fusion inhibitor project, dose response (AID 652040); format: functional, cell-based;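 note: potency for signal decrease marking cytotoxic or nonspecific inhibition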
[12] = HIV-1 AD8 envelope cell-cell fusion blockers – cherry-pick, dose response (AID 652062); format: functional, cell-based;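 note: luciferase signal from cell-cell fusion driven by HIV-1 clade B AD8 Env; potency is for inhibitors of fusion seen as a drop in luminescence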
[13] = biological target: T3, Carboxy-terminal domain RNA polymerase II polypeptide A small phosphatase 1 (Homo sapiens, UniProt Q9GZU7); experiment: CTDSP1 inhibitors, concentration-response, biochemical, absorbance readout, ultra-high-throughput screen actives (AID 540297); format: functional
T3 sequence (Q9GZU7 whole entry): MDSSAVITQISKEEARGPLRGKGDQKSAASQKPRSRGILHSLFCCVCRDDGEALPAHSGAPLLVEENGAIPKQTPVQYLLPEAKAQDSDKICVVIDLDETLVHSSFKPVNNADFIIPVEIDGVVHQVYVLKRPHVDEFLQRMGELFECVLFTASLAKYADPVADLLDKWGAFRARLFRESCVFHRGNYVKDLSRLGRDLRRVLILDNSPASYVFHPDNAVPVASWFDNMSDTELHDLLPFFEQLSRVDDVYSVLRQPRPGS

[14] = biological target: T4, COUP transcription factor 2 (Homo sapiens, UniProt P24468); experiment: Luminescence-based cell-based high throughput dose response assay to identify inhibitors of COUP-TFII (NR2F2).; format: functional;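 note: HEK293 cells transiently cotransfected with COUP-TFII expression vector and reporter; luciferase reporter luminescence driven by COUP-TFII from the pX2-168 reporter plasmid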
T4 sequence (P24468 whole entry): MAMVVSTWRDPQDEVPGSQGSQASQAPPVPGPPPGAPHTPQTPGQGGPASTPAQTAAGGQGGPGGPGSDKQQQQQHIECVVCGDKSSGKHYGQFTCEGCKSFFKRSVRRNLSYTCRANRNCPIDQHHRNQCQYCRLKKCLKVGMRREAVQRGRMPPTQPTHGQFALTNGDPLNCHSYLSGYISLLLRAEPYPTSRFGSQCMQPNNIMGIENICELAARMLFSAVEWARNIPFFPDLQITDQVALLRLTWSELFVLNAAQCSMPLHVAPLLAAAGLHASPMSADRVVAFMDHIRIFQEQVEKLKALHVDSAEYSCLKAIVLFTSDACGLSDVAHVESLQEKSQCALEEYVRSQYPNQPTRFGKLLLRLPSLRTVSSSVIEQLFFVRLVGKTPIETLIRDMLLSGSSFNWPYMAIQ

[15] = Trypanosoma cruzi growth suppression in host cells – NIH3T3 host cells, beta-gal luminescence, confirmation (AID 2044); format: functional, cell-based;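 note: intracellular parasites grown in NIH/3T3 mouse fibroblasts as host cells; luminescent beta-galactosidase reporter signal from transgenic T. cruzi replicating inside host cells; inhibitors lower the luminescence signal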
[16] = NIH3T3 cell viability loss – ATP luminescence, mouse fibroblasts, counter-screen, dose response (AID 2010); format: functional, cell-based;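 note: cells exposed to compound for about 90 hours before reading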
Nonstructural protein 1 = Nonstructural protein 1 (Influenza A virus, UniProt Q194T2); format: functional, Influenza A virus (A/California/07/2009(H1N1))
Nonstructural protein 1, sequence (Q194T2 whole entry): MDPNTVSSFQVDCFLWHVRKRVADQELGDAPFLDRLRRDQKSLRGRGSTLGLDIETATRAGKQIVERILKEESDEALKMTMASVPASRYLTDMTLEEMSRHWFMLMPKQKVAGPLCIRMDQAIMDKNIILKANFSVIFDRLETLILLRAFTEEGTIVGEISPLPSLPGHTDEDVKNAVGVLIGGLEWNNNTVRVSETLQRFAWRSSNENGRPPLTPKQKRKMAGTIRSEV

Paired box protein Pax-8 = Paired box protein Pax-8 (Homo sapiens, UniProt Q06710); experiment: PAX8 transcriptional activity inhibition in RMG-I – RMG-I cells, luciferase, cherry-pick, dose response (AID 687027); format: functional, cell-based;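 note: luciferase reporter driven by Pax8 target thyroperoxidase promoter measured by SteadyGlo luminescence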
Paired box protein Pax-8, sequence (Q06710 whole entry): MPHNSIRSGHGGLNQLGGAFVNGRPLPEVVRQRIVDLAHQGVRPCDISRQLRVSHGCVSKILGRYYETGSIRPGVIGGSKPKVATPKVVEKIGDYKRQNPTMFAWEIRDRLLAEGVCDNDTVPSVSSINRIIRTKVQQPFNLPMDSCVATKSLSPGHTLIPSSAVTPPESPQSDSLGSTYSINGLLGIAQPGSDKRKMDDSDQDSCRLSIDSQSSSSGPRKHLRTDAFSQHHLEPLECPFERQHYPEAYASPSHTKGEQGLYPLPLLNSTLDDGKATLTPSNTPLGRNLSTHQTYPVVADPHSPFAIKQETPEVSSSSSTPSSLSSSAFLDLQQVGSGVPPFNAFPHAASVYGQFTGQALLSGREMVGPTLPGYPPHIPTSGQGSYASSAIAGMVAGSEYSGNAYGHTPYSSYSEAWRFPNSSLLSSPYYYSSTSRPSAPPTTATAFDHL

[17] = OVCAR-3 cell viability loss – plate reader, dry powder samples, PAX8 inhibitor project, dose response (AID 743044); format: functional, cell-based
[18] = IGROV1 cell killing – plate reader, dry powder samples, PAX8 inhibitor project, dose response (AID 743043); format: functional, cell-based; settings: IGROV-1
[19] = OVCAR8 cell viability loss – plate reader, dry powder samples, PAX8 project, dose response (AID 743197); format: functional, cell-based; settings: OVCAR-8
[20] = HEK-293T cell viability reduction – luminescence, B-cell screen hits, cytotoxicity control for BCR NF-kB inhibitor project, dose response (AID 489021); format: functional, cell-based;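 note: HEK-293T cells carrying an NF-kB luciferase reporter; cells exposed to compound for about 14 hours before viability readout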
[21] = reduction of Shn3 3'UTR-driven luciferase in osteoblasts – cell-based, Clone20 osteoblasts, firefly luciferase, cherry-picked, dose response (AID 624132); format: functional;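 note: firefly luciferase luminescence from reporter carrying the Shn3 3'UTR in osteoblasts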
[22] = loss of viability in HepG2 cells – cell-based, CellTiter-Glo, cherry-picked, cytotoxicity control for Shn3 inhibitor project, dose response (AID 624134); format: functional

Induced myeloid leukemia cell differentiation protein Mcl-1, sequence (Q07820 whole entry): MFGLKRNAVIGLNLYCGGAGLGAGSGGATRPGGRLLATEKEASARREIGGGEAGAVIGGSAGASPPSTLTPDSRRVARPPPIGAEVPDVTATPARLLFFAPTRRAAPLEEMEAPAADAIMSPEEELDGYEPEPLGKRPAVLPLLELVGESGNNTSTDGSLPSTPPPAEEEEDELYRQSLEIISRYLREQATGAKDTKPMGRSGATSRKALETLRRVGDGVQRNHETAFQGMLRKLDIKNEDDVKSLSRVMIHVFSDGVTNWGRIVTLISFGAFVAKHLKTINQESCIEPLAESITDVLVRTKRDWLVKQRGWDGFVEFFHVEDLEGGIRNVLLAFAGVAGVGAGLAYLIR

For `Cc1ccc(CNC(=O)c2ccc(-n3cccc3)cc2)cc1`, the IC50 [1] was 3.27 µM (active) and the IC50 [2] was 50 µM (inactive).
In the case of `COc1cc(/C=C(/C#N)C(=O)NCCCc2ccccc2)ccc1OCC(=O)O`, the IC50 [3] is reported as 1.61 µM (active) and the IC50 [4] is reported as 3.23 µM (active).
For `CCOC(=O)C1=C(Nc2ccc(OC)cc2)S/C(=C\c2cc(OC)c(O)c(OC)c2)C1=O`, the IC50 [1] was 4.24 µM (not active).
With `Cc1ccc(C(=O)NC(C)C(c2cccs2)N2CCCC2)s1` (stereo unspecified) the IC50 (Prothrombin) was > 50 µM (not active), the IC50 [5] was > 109 µM (inactive) and the IC50 [6] was > 83.3 µM (inactive).
In the case of `CCN1C(NCC2CC2)=N[C@@H](c2cccc(C(F)(F)F)c2)C(C(=O)OC)=C1C`, the IC50 [3] is reported as 4.22 µM (active) and the IC50 [4] is reported as 6.71 µM (active).
In the case of `COCC(=O)n1nc(-c2ccccc2)nc1NCc1cccs1`, the IC50 (Prothrombin) is reported as 0.467 µM (active).
With `NC(=O)c1c(NC(=O)Cn2nc(C(=O)O)c3ccccc3c2=O)sc2c1CCCC2` the IC50 (Prothrombin) was 24.3 µM (active).
With `COc1ccccc1NC(=O)CSc1nnc(-c2ccc(NC(C)=O)cc2)n1C` the IC50 [5] was > 109 µM (inactive) and the IC50 [6] was > 83.3 µM (inactive).
For `Cc1ccc(Cl)cc1NS(=O)(=O)c1c(C)[nH]c(=O)[nH]c1=O`, the IC50 (Prothrombin) was > 50 µM (not active).
In the case of `CCC(C)N1C(=O)NC(=O)C2(Cc3c(ccc4ccccc34)N(C)C2)C1=O` (stereo unspecified), the IC50 [7] is reported as > 50 µM (not active).
With `CS(=O)(=O)Nc1cccc(C(=O)CC2(O)C(=O)Nc3ccc(Br)cc32)c1` (stereo unspecified) the IC50 (Prothrombin) was 0.525 µM (active).
For `CC(=O)NCCOC(=O)Nc1ccncc1`, the IC50 (Estrogen receptor) was > 50 µM (not active).
In the case of `O=C(CCC(=O)N1CCN(S(=O)(=O)c2ccc3ccccc3c2)CC1)Nc1cc(Cl)cc(Cl)c1`, the CC50 [8] is reported as > 6.25 µM (active), the AC50 [9] is reported as 3.61 µM (active) and the AC50 [10] is reported as 4.28 µM (active). For the same molecule, the AC50 [11] was 6.16 µM (active) and the AC50 [12] was 14.2 µM (active).
For `CCc1ccc2[nH]c(=O)c(CN(Cc3ccc4c(c3)OCO4)C(=O)c3ccco3)cc2c1`, the IC50 (Estrogen receptor) was 26.2 µM (active).
With `COc1ccccc1/C=c1\sc2nc(-c3ccco3)nn2c1=O` the IC50 (Estrogen receptor) was 17.5 µM (active), the IC50 [1] was 7.38 µM (active) and the IC50 [13] was 5 µM (active).
In the case of `Cc1ccc(-n2nc3c(=O)n(C(C)C(=O)NCCC4=CCCCC4)nc(C)c3c2C)cc1` (stereo unspecified), the IC50 [14] is reported as 6.62 µM (active).
In the case of `COc1ccc(OC)c(NS(=O)(=O)c2ccc(NC(C)=O)cc2)c1`, the IC50 [5] is reported as > 109 µM (inactive) and the IC50 [6] is reported as > 83.3 µM (inactive).
With `S=C(Nc1ccc2c[nH]nc2c1)Nc1ccc(Cl)cc1Cl` the IC50 [7] was > 50 µM (not active).
For `N#C/C(=C\C1=C(N2CCOCC2)C(=C\c2ccccc2)/CC1)C(=O)Nc1ccccc1F`, the EC50 [15] was 1.01 µM (active), the EC50 [16] was > 60 µM (not active) and the IC50 (Nonstructural protein 1) was 13.3 µM (active).
In the case of `C[C@@H]1CCCCO[C@@H](CN(C)Cc2ccc(C(F)(F)F)cc2)[C@H](C)CN([C@@H](C)CO)C(=O)c2cc(NC(=O)NC3CCCCC3)ccc2O1`, the AC50 (Paired box protein Pax-8) is reported as 8.39 µM (active), the AC50 [17] is reported as 45.2 µM (active) and the AC50 [18] is reported as 50.9 µM (active). The AC50 [19] was 37.5 µM (active).
In the case of `Cc1ccc(Nc2nnc(SCC(=O)NCc3ccco3)s2)cc1`, the IC50 (Estrogen receptor) is reported as 28.8 µM (active).
For `COC(=O)C1=C(c2ccc(-c3ccccc3)c(F)c2)C[C@@H]2CC[C@H]1N2C(=O)N1CCCC1`, the IC50 [20] was > 80 µM (inactive), the AC50 [21] was 6.06 µM (active) and the AC50 [22] was 6.77 µM (active). For the same molecule, the IC50 [14] was 8.17 µM (active).
In the case of `COc1ccc(N2CC(C(=O)N/N=C/c3cc([N+](=O)[O-])ccc3O)CC2=O)cc1` (stereo unspecified), the IC50 (Nonstructural protein 1) is reported as 17.8 µM (active).
With `CC(Cc1ccccn1)NC(=O)CCc1nnc(C2CCCCC2)o1` (stereo unspecified) the IC50 [5] was > 109 µM (inactive) and the IC50 [6] was > 83.3 µM (inactive).
With `O=C(c1ccccc1F)N1CC(=O)N2[C@@H](CO)[C@@H](c3ccc(C#Cc4ccc(F)cc4)cc3)[C@@H]2C1` the AC50 (Paired box protein Pax-8) was 5.77 µM (active), the AC50 [17] was 8.76 µM (active) and the AC50 [18] was 19.2 µM (active). For the same molecule, the AC50 [19] was 41.1 µM (active).
With `Cc1onc(-c2ccccc2Cl)c1C(=O)NCCN1CCOCC1` the IC50 [5] was > 109 µM (inactive) and the IC50 [6] was > 83.4 µM (inactive).
With `C[C@@H]1CCCCO[C@@H](CN(C)Cc2ccc(Cl)c(Cl)c2)[C@H](C)CN([C@H](C)CO)C(=O)c2cc(NS(=O)(=O)c3ccc(Cl)cc3)ccc2O1` the AC50 (Paired box protein Pax-8) was 8.68 µM (active), the AC50 [18] was 59.2 µM (active) and the AC50 [19] was > 70 µM (inactive).
With `OCC(CO)(CO)/N=C/c1c(O)ccc2ccccc12` the IC50 [7] was 38.6 µM (active).
